Experimental data as given in patent US7575910B2, “Method for producing L-fuculose and method for producing L-fucose” (priority 2004, dated 2009).
Read-outs that look alike come from different tables or passages of the source.

Legend:
[1] = biological target: T1, FcDH (L-fuculose-producing L-fucitol dehydrogenase) (Gluconobacter thailandicus, UniProt A0ABQ0IZX0); experiment: Substrate specificity of purified FcDH (kcat, Km by Lineweaver-Burk plot); format: biochemical, Gluconobacter oxydans IFO 3255; conditions: for substrate concentration at which a reduction of the specific activity (inhibition by the substrate) was observed: FIG. 12
T1 sequence (A0ABQ0IZX0 1-257): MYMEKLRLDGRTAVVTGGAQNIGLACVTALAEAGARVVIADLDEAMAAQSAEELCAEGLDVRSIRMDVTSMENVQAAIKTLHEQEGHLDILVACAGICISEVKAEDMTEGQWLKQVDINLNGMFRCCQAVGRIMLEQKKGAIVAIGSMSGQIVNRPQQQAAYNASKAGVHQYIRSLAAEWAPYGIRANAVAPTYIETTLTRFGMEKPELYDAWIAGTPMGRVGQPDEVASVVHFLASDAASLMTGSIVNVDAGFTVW
Experimental: The measurement was started when NAD was added. […] The measurement was performed consecutively three times.
Values of kcat and Km for each substrate were obtained by measuring the initial rate of the reaction with various substrate concentrations and drawing a Lineweaver-Burk plot of the results.
Lineweaver-Burk plots of the results in (A) and (B) are shown in FIG. 12 (C) and (D), respectively. The Km and kcat values were calculated from the range in which substrate inhibition was not observed, i.e., from a straight line represented by a broken line in FIG. 12 (C) and (D).

[2] = test system: L-fucitol dehydrogenase in cell free extract of G. oxydans IFO 3255 sldA:Kmr mutant strain; experiment: NAD(P)-dependent L-fucitol oxidation activity in cell free extract; format: biochemical, Gluconobacter oxydans IFO 3255 sldA:Kmr
Experimental: Subsequently, 1 ml of the medium was added to 50 ml of the same liquid medium, and cultured at 30° C. for 18 hours using a 500 ml Sakaguchi flask. The microbial cells were collected by centrifuging this medium, washed with 9 g/l of NaCl, and sonicated with 200 W for 10 minutes to yield the disrupted microbial cells. These cells were further centrifuged at 15,000 g for 15 minutes to yield the supernatant, which was then used as a cell-free extract. […] The experiment was also performed without L-fucitol as the control.

FcDH [3] = biological target: T2, FcDH (Gluconobacter thailandicus, UniProt A0ABQ0IZX0); experiment: Oxidation products of substrates by purified FcDH, HPLC; format: biochemical, Gluconobacter oxydans IFO 3255; conditions: 0.5 g/dl substrate, NOX, catalase, 30° C., 16 hours
Experimental: Among the substrates recognized by FcDH, the oxidation product of L-fucitol is L-fuculose, and the oxidation products of the other substrates were examined. The substrates used were D-arabitol, D-mannitol and D-sorbitol. A reaction solution containing 0.5 g/dl of the substrate, 50 mM Gly-NaOH (pH 9.5), 1 mM NAD, 30 mM FAD, 5 mM MgCl2, 0.6 U/ml purified FcDH, 0.2 U/ml NOX, and 0.1 mg/ml catalase was reacted at 30° C. for 16 hours, and analyzed by HPLC (FIG. 13).

FcDH [4] = biological target: T2, FcDH; experiment: Bivalent metal ion specificity of FcDH; format: biochemical, Gluconobacter oxydans IFO 3255
NOX (NADH oxidase) = NOX (NADH oxidase) (Gluconobacter thailandicus, UniProt A0ABQ0IUG6); experiment: NOX activity: NADH/NADPH and flavin coenzyme specificity; format: biochemical, Gluconobacter oxydans IFO 3255; conditions: for NOX activation effect of flavin coenzyme: flavin 0 to 300 μM, FIG. 19
Experimental: (§1) The change in absorbance in the first minute was taken as an initial rate, and the activity was calculated therefrom. The experimental group without the enzyme source was used as a blank. […] The measurement was taken three consecutive times. Their mean value was taken and is shown in the figure with the standard deviation.
The concentration of flavin in the reaction solution was 0 to 300 μM, and the others were adjusted to standard conditions.
The Km value for the substrate was calculated by measuring the activity with a variety of substrate concentrations and drawing a Lineweaver-Burk plot of the results.

[5] = Experimental: as §1
As pH buffers, sodium citrate buffer (pH 3.6, 4.7, 5.7), sodium acetate buffer (pH 4.8, 5.7), potassium phosphate buffer (pH 6.4, 7.2), Tris-HCl buffer (pH 6.7, 7.6, 8.5), and CAPS-NaOH buffer (pH 8.3, 9.5) were used.
(§2) The activity of the purified preparations of rFcDH and rNOX that had been purified as described above was also measured.

[6] = substrate: NC(=O)c1ccc[n+]([C@@H]2O[C@H](COP(=O)([O-])OP(=O)(O)OC[C@H]3O[C@@H](n4cnc5c(N)ncnc54)[C@H](O)[C@@H]3O)[C@@H](O)[C@H]2O)c1; experiment: NAD and NADP specificity of FcDH; format: biochemical, Gluconobacter oxydans IFO 3255; conditions: other: FcDH, Lineweaver-Burk plot, FIG. 14; pH 9.5; 30.0 °C
Experimental: The activity was measured by adding NAD or NADP at various concentrations under standard conditions. The Km value for each coenzyme was calculated by drawing a Lineweaver-Burk plot of the results (FIG. 14 (B)).

[7] = remark: listed apart in the source
Experimental: The measurement was started when NAD was added. The change in absorbance in the first minute was taken as the initial rate, and the activity was calculated therefrom. […] The measurement was performed consecutively three times. Their mean value was taken and is shown in the figure with the standard deviation.
As pH buffers, sodium acetate buffer (pH 4.8, 5.7), potassium phosphate buffer (pH 6.4, 7.2), Tris-HCl buffer (pH 6.7, 7.6, 8.5), CAPS-NaOH buffer (Sodium cyclohexylaminopropanesulfonate) (pH 8.3, 9.5) and sodium carbonate buffer (pH 10.1, 10.7, 11.2) were used.
A solution containing 0.1M pH buffer and 80 μg/ml purified FcDH was left to stand on ice for 30 minutes, and subsequently the solution was diluted to a final FcDH concentration of 1.6 μg/ml. The reaction was performed under standard conditions, and the remaining FcDH activity was measured.
A solution containing Gly-NaOH (pH 9.5), MgCl2, fucitol, and purified FcDH was preincubated at each temperature (25, 30, 37, 45, 55, or 65° C.) for 3 minutes, and then NAD that had been separately preincubated at each temperature was added thereto to start the reaction. The final concentrations in the reaction solution were adjusted to the standard conditions for activity measurement, and the final concentration of FcDH was 1.6 μg/ml.
A solution containing Gly-NaOH (pH 9.5) and 80 μg/ml purified FcDH was left to stand at 0, 25, 30, 37, 50 or 60° C. for 30 minutes. The solution was then diluted so that the final concentration of FcDH was 1.6 μg/ml. The reaction was performed under standard conditions, and the remaining FcDH activity was measured. The remaining activity of FcDH measured at each temperature is reported (FIG. 11) as the relative percentage as compared to the remaining activity when left to stand at 0° C.
as §2

[8] = 5 mM bivalent metal ion or EDTA
[9] = 5 mM bivalent metal ion or EDTA, relative to specific activity with MnCl2
[10] = substrate, Lineweaver-Burk plot

For `C[C@H](O)[C@@H](O)[C@@H](O)[C@H](O)CO` [L-FUCITOL, L-fucitol], the “substrate concentration at which a reduction of the specific activity (inhibition by the substrate) was observed” value [1] was at least 100 mM, the Dehydrogenase activity ([2]; coenzyme NAD, pH 6.0) was 3.1 ×10^−3 U/mg and the Dehydrogenase activity ([2]; coenzyme NAD, pH 8.8) was 18.4 ×10^−3 U/mg. For the same molecule, the Dehydrogenase activity ([2]; coenzyme NADP, pH 6.0) was 0.0 ×10^−3 U/mg and the Dehydrogenase activity ([2]; coenzyme NADP, pH 8.8) was 1.9 ×10^−3 U/mg.

With `OC[C@@H](O)C(O)[C@H](O)CO` [D-ARABITOL, D-arabitol] the “substrate concentration at which a reduction of the specific activity (inhibition by the substrate) was observed” value [1] was at least 5 mM and the “oxidation product identified by HPLC” value (FcDH [3]) was “D-ribulose and D-xylulose”.

For `[Cl][Ni][Cl]` [NiCl2], the “effect on FcDH activity” value (FcDH [4]; [8]) was “no effect” and the “RELATIVE ACTIVITY (%)” value (FcDH [4]; [9]) was 42.4 ± 0.7%.

In the case of `NC(=O)C1=CN([C@@H]2O[C@H](COP(=O)(O)OP(=O)(O)OC[C@H]3O[C@@H](n4cnc5c(N)ncnc54)[C@H](OP(=O)(O)O)[C@@H]3O)[C@@H](O)[C@H]2O)C=CC1` [NADPH], the “NOX activity with NADPH as the substrate” value (NOX (NADH oxidase); data not shown) is reported as “no significant activity”.

In the case of `[Cl-].[Cl-].[Co+2]` [CoCl2], the “RELATIVE ACTIVITY (%)” value (FcDH [4]) is reported as 34.8 ± 1.1% and the “effect on FcDH activity” value (FcDH [4]) is reported as “no effect”.

With `OC[C@@H](O)[C@@H](O)[C@H](O)[C@H](O)CO` [D-MANNITOL, D-mannitol] the “oxidation product identified by HPLC” value (FcDH [3]) was “D-fructose”.

In the case of `[Cl][Cu][Cl]` [CuCl2], the “effect on FcDH activity” value (FcDH [4]; [8]) is reported as “inhibitory effect” and the “RELATIVE ACTIVITY (%)” value (FcDH [4]; [9]) is reported as 5.0 ± 0.5%.

In the case of `[Ca+2].[Cl-].[Cl-]` [CaCl2], the “effect on FcDH activity” value (FcDH [4]; [8]) is reported as “activation effect” and the “RELATIVE ACTIVITY (%)” value (FcDH [4]; [9]) is reported as 89.9 ± 3.4%.

For `Cc1cc2nc3c(=O)[nH]c(=O)nc-3n(C[C@H](O)[C@H](O)[C@H](O)CO)c2cc1C` [riboflavin], the “NOX activation effect of flavin coenzyme” value (NOX (NADH oxidase)) was “NOX activation effect was observed”.

For `O=S(=O)([O-])[O-].[Zn+2]` [ZnSO4], the “effect on FcDH activity” value (FcDH [4]; [8]) was “inhibitory effect” and the “RELATIVE ACTIVITY (%)” value (FcDH [4]; [9]) was 11.7 ± 0.5%.

Molecule `OCC(O)CO` [GLYCEROL, glycerol] has a Kcat [1, 10] of 0.9 U · mg−1 and a Km [1, 10] of 10.1 mM.

With `Cc1cc2nc3c(=O)[nH]c(=O)nc-3n(C[C@H](O)[C@H](O)[C@H](O)COP(=O)(O)O)c2cc1C` [FMN] the “NOX activation effect of flavin coenzyme” value (NOX (NADH oxidase)) was “relatively weaker”.

With `[Cl][Mn][Cl]` [MnCl2] the “effect on FcDH activity” value (FcDH [4]; [8]) was “activation effect” and the “RELATIVE ACTIVITY (%)” value (FcDH [4]; [9]) was 100.0 ± 6.9%.

In the case of `[Cl-].[Cl-].[Mg+2]` [MgCl2], the “effect on FcDH activity” value (FcDH [4]; [8]) is reported as “activation effect” and the “RELATIVE ACTIVITY (%)” value (FcDH [4]; [9]) is reported as 93.7 ± 2.9%.

In the case of `OC[C@@H](O)[C@@H](O)[C@H](O)[C@@H](O)CO` [D-SORBITOL, D-sorbitol], the “oxidation product identified by HPLC” value (FcDH [3]) is reported as “L-sorbose”.

B1: NOX: NADH oxidase purified from G. oxydans IFO 3255, SEQ ID NO:18 (protein)
chain: MTILNEQDFRRAMSHFATGVAVVTAKGSEGEQGATISALTSVSLDPLLLLICLHRGSSTYKAIAEAGRFGLSILNNSHKDVAMLFASRTADKFGSDVVVRAEDGTAFIDGALVQMHCELVETFQGGTHALFMARPTSITVRDEAPLLYFQGQLGVEA
modifications: Gluconobacter oxydans
For B1, the “remaining activity (temperature stability)” value ([5]; 0.5 h) was at least 80%, the “pH of maximum specific activity” value ([5]; FIG. 15, 30° C.) was 5.7 and the “temperature of maximum specific activity” value ([5]; FIG. 17, pH 8.0) was 37 °C. For the same molecule, the “remaining activity (pH stability)” value ([5]; buffer, 0.5 h, pH 8.8) was at least 80% and the “specific activity of NOX” value ([5]; purified preparation, 0.2 mM NADH, 30 μM FAD, pH 8.0, 30° C.) was 196 U/mg.

B2: FcDH (Gluconobacter thailandicus NBRC 3257) (protein)
chain: MYMEKLRLDGRTAVVTGGAQNIGLACVTALAEAGARVVIADLDEAMAAQSAEELCAEGLDVRSIRMDVTSMENVQAAIKTLHEQEGHLDILVACAGICISEVKAEDMTEGQWLKQVDINLNGMFRCCQAVGRIMLEQKKGAIVAIGSMSGQIVNRPQQQAAYNASKAGVHQYIRSLAAEWAPYGIRANAVAPTYIETTLTRFGMEKPELYDAWIAGTPMGRVGQPDEVASVVHFLASDAASLMTGSIVNVDAGFTVW
B2 gave a Km [6] of 0.20 mM.

B3: FcDH: L-fuculose-producing L-fucitol dehydrogenase purified from G. oxydans IFO 3255, SEQ ID NO:16 (protein)
chain: MYMEKLRLDGRTAVVTGGAQNIGLACVTALAEAGARVVIADLDEAMAAQSAEELCAEGLDVRSIRMDVTSMENVQAAIKTLHEQEGHLDILVACAGICISEVKAEDMTEGQWLKQVDINLNGMFRCCQAVGRIMLEQKKGAIVAIGSMSGQIVNRPQQQAAYNASKAGVHQYIRSLAAEWAPYGIRANAVAPTYIETTLTRFGMEKPELYDAWIAGTPMGRVGQPDEVASVVHFLASDAASLMTGSIVNVDAGFTVW
modifications: Gluconobacter oxydans
In the case of B3, the “remaining activity (temperature stability)” value ([7]; 0.5 h) is reported as at least 80%, the “pH of maximum specific activity” value ([7]; FIG. 8, 30° C.) is reported as 9.5 and the “temperature of maximum specific activity” value ([7]; FIG. 10, pH 9.5) is reported as 37 °C. For the same molecule, the “remaining activity (pH stability)” value ([7]; buffer, 0.5 h, pH 7.2) was at least 80% and the “specific activity of FcDH” value ([7]; purified preparation, 10 mM L-fucitol, 1 mM NAD, pH 9.5, 30° C.) was 7.8 U/mg.
